Reference: article PMC3783656 (Bioorganic & medicinal chemistry letters, 2013)
≈ marks a conversion by molar mass, not a printed value.

Experiments:
FLT3 (K663Q) = FLT3 (K663Q) (Homo sapiens, UniProt P36888, K663Q); assay: KINOMEscan kinase binding; settings: 10 μM; % of kinase remaining bound to bead-bound ligand
[1] = system: human melanoma A375 cell line; assay: MTT assay against A375 melanoma cells; assay type: cell-based; settings: read-out: MTT assay A375 EC50; human A375 melanoma cell line
FLT3 [2] = target: T1, FLT3 (Homo sapiens, UniProt P36888); assay: KINOMEscan kinase binding; settings: 10 μM; % of kinase remaining bound to bead-bound ligand
T1 sequence (P36888 27-993): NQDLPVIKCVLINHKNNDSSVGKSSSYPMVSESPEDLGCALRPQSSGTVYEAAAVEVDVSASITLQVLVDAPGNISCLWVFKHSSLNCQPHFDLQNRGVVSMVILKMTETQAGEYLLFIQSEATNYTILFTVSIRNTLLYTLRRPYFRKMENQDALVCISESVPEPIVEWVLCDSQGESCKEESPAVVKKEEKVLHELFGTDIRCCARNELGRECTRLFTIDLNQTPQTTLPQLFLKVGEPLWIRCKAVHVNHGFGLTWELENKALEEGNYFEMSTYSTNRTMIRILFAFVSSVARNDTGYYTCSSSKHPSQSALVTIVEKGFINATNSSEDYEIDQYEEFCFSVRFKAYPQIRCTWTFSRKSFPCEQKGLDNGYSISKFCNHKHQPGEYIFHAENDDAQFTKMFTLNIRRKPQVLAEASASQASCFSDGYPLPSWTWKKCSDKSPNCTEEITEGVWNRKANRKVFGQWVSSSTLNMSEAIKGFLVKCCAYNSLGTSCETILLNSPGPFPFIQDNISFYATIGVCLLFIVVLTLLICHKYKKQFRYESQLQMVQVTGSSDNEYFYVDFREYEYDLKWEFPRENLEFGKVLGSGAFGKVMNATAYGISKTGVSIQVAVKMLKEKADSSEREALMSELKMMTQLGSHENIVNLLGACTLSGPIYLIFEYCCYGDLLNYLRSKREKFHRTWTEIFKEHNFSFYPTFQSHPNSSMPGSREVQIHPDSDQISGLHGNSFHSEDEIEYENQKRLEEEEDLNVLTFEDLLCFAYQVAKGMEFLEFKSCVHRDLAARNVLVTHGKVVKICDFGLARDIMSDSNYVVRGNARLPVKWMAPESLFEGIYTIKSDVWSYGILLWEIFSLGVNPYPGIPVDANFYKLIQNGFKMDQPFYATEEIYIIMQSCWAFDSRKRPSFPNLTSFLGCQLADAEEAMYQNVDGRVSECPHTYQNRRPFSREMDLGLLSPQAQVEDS

FLT3 (ITD) = assay: KINOMEscan kinase binding; settings: 10 μM; % of kinase remaining bound to bead-bound ligand
MARK2 = MARK2 (Homo sapiens, UniProt Q7KZI7); assay: KINOMEscan kinase binding; settings: 10 μM; % of kinase remaining bound to bead-bound ligand
CDK4/cyclin D1 = CDK4/cyclin D1 (Homo sapiens, UniProt P11802); assay: KINOMEscan kinase binding; settings: 10 μM; % of kinase remaining bound to bead-bound ligand
FLT3 [3] = target: T1, FLT3; assay: Off-target kinase inhibition, Reaction Biology Corporation; assay type: biochemical; settings: read-out: IC50 for inhibition of off-target kinase FLT3; data obtained by Reaction Biology Corporation
CSNK1A1L = CSNK1A1L (Homo sapiens, UniProt Q8N752); assay: KINOMEscan kinase binding; settings: 10 μM; % of kinase remaining bound to bead-bound ligand
BMP2K = BMP2K (Homo sapiens, UniProt Q9NSY1); assay: KINOMEscan kinase binding; settings: 10 μM; % of kinase remaining bound to bead-bound ligand
CDK4/cyclin D3 = CDK4/cyclin D3 (Homo sapiens, UniProt P11802); assay: KINOMEscan kinase binding; settings: 10 μM; % of kinase remaining bound to bead-bound ligand
MELK = MELK (Homo sapiens, UniProt Q14680); assay: KINOMEscan kinase binding; settings: 10 μM; % of kinase remaining bound to bead-bound ligand
Mouse PK studies = assay type: in vivo; settings: IV dosing, 1 mg/kg, 10/10/80 DMSO/Tween/water
CSNK1A1 = CSNK1A1 (Homo sapiens, UniProt P48729); assay: KINOMEscan kinase binding; settings: 10 μM; % of kinase remaining bound to bead-bound ligand
CDK7 = CDK7 (Homo sapiens, UniProt P50613); assay: KINOMEscan kinase binding; settings: 10 μM; % of kinase remaining bound to bead-bound ligand
TAOK3 = TAOK3 (Homo sapiens, UniProt Q9H2K8); assay: KINOMEscan kinase binding; settings: 10 μM; % of kinase remaining bound to bead-bound ligand
PRKCQ = PRKCQ (Homo sapiens, UniProt Q04759); assay: KINOMEscan kinase binding; settings: 10 μM; % of kinase remaining bound to bead-bound ligand
LATS2 = LATS2 (Homo sapiens, UniProt Q9NRM7); assay: KINOMEscan kinase binding; settings: 10 μM; % of kinase remaining bound to bead-bound ligand
442 kinases = assay: DiscoverRX KINOMEscan analysis of 442 kinases; assay type: binding; settings: 10 μM, KINOMEscan of 442 kinases
RIOK3 = RIOK3 (Homo sapiens, UniProt O14730); assay: KINOMEscan kinase binding; settings: 10 μM; % of kinase remaining bound to bead-bound ligand
CDK13 = CDK13 (Homo sapiens, UniProt Q14004); assay: KINOMEscan kinase binding; settings: 10 μM; % of kinase remaining bound to bead-bound ligand
CSNK1E [CK1ε] = CSNK1E [CK1ε] (Homo sapiens, UniProt P49674); assay: KINOMEscan kinase binding; settings: 10 μM; % of kinase remaining bound to bead-bound ligand
[4] = Microsome stability, rat liver microsomes; settings: rat liver microsomes; second value of h/r/m
FLT3 (D835H) = FLT3 (D835H) (Homo sapiens, UniProt P36888, D835H); assay: KINOMEscan kinase binding; settings: 10 μM; % of kinase remaining bound to bead-bound ligand
CK1δ [5] = target: T2, CK1δ (Homo sapiens, UniProt P48730); assay: Kinetic analysis; assay type: biochemical; settings: ATP competitive
CSNK1D [CK1δ] = CSNK1D [CK1δ] (Homo sapiens, UniProt P48730); assay: KINOMEscan kinase binding; settings: 10 μM; % of kinase remaining bound to bead-bound ligand
CK1δ [6] = target: T2, CK1δ; assay: CK1δ inhibition, Reaction Biology Corp.; assay type: biochemical; settings: read-out: IC50 CK1δ; data obtained by Reaction Biology Corp.
NLK = NLK (Homo sapiens, UniProt Q9UBE8); assay: KINOMEscan kinase binding; settings: 10 μM; % of kinase remaining bound to bead-bound ligand
FLT3 (N841L) = assay: KINOMEscan kinase binding; settings: 10 μM; % of kinase remaining bound to bead-bound ligand
[7] = Solubility in DMEM/10% FBS; assay type: physicochemical
[8] = Microsome stability, mouse liver microsomes; settings: mouse liver microsomes; third value of h/r/m
ROCK2 = ROCK2 (Homo sapiens, UniProt O75116); assay: KINOMEscan kinase binding; settings: 10 μM; % of kinase remaining bound to bead-bound ligand
[9] = Microsome stability, human liver microsomes; settings: human liver microsomes; first value of h/r/m
MAST1 = MAST1 (Homo sapiens, UniProt Q9Y2H9); assay: KINOMEscan kinase binding; settings: 10 μM; % of kinase remaining bound to bead-bound ligand
FLT3 (D835Y) = FLT3 (D835Y) (Homo sapiens, UniProt P36888, D835Y); assay: KINOMEscan kinase binding; settings: 10 μM; % of kinase remaining bound to bead-bound ligand
Solubility in PBS buffer = assay type: physicochemical

Sequence of MARK2 (Q7KZI7 whole entry): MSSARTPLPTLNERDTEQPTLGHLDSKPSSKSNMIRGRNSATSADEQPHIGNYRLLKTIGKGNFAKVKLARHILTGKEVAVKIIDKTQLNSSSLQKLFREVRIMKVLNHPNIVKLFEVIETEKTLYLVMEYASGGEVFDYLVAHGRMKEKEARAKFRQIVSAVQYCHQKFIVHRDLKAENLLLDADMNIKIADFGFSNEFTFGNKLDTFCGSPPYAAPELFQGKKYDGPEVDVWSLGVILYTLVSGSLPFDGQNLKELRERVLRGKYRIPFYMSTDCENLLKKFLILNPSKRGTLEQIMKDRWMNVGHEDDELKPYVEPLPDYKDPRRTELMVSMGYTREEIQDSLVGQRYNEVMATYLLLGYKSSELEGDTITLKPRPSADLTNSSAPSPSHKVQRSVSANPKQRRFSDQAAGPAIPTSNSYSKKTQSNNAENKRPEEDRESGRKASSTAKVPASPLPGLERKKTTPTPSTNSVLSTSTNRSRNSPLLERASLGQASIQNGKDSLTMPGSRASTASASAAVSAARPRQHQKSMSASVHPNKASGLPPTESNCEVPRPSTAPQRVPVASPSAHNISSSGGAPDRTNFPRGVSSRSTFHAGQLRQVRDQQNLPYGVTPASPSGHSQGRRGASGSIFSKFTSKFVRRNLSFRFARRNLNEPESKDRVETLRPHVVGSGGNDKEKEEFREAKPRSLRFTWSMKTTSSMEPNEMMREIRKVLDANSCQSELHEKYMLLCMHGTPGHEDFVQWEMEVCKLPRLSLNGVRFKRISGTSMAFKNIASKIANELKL
Sequence of RIOK3 (O14730 whole entry): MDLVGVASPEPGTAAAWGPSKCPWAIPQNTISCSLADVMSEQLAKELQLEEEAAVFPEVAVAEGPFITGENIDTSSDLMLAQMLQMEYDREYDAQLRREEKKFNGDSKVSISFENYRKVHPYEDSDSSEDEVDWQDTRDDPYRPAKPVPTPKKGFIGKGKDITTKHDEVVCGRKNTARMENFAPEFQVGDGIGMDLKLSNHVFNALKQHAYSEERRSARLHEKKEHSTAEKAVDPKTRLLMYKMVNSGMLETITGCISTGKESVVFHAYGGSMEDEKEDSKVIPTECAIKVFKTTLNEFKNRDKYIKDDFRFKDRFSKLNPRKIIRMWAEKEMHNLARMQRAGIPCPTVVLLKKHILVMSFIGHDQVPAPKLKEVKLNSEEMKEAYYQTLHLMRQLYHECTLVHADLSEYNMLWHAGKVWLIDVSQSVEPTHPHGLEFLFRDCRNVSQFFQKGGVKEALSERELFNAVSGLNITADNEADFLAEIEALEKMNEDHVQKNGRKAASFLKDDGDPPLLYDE
T2 sequence (P48730 whole entry): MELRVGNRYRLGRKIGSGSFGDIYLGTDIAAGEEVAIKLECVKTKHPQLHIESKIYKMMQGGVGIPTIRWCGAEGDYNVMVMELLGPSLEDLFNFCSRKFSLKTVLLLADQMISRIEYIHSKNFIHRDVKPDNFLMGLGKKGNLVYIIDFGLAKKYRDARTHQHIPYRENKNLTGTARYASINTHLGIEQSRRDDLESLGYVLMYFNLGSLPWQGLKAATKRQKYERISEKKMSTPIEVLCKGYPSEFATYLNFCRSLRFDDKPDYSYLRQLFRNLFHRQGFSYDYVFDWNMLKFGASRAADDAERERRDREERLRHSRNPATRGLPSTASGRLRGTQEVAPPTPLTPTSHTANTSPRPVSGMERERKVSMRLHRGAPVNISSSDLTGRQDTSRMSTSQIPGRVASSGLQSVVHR
Sequence of BMP2K (Q9NSY1 whole entry): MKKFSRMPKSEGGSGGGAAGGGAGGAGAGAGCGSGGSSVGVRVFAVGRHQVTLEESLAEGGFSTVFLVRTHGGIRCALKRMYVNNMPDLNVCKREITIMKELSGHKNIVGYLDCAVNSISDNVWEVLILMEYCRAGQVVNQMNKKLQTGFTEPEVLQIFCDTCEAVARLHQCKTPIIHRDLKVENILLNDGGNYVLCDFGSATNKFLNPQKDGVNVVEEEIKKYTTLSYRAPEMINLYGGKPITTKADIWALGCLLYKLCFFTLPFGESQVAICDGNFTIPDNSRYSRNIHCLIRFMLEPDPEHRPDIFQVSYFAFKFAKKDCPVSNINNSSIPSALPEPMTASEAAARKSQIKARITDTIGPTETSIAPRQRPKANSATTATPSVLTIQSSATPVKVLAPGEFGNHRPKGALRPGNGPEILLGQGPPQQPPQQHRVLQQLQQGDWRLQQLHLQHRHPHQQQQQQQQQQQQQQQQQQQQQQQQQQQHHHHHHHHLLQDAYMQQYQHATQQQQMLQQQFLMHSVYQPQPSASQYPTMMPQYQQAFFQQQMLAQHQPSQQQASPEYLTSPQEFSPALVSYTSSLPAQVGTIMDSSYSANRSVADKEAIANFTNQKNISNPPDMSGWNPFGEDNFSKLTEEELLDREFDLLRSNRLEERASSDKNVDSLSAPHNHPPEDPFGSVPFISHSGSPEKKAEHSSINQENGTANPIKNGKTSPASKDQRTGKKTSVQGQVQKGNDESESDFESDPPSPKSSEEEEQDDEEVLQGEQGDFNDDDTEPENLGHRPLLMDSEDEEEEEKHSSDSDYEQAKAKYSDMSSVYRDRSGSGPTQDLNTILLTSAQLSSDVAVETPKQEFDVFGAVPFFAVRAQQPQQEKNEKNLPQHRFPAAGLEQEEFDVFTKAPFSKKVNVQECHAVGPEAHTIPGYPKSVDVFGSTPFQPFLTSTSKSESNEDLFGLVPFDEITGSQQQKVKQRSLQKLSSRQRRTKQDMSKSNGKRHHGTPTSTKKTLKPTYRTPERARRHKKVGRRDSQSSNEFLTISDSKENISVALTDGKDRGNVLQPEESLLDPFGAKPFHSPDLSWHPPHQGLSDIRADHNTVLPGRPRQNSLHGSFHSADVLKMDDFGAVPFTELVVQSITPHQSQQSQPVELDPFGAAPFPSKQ
Sequence of CSNK1A1 (P48729 whole entry): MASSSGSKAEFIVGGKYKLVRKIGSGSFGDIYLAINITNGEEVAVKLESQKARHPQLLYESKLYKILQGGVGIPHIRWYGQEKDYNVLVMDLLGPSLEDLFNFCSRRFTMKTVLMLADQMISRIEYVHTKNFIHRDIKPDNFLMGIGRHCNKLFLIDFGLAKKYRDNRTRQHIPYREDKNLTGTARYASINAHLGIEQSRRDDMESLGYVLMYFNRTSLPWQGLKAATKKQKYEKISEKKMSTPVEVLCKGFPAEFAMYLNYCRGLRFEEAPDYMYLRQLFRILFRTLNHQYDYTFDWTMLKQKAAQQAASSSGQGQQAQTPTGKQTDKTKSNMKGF
Sequence of CSNK1A1L (Q8N752 whole entry): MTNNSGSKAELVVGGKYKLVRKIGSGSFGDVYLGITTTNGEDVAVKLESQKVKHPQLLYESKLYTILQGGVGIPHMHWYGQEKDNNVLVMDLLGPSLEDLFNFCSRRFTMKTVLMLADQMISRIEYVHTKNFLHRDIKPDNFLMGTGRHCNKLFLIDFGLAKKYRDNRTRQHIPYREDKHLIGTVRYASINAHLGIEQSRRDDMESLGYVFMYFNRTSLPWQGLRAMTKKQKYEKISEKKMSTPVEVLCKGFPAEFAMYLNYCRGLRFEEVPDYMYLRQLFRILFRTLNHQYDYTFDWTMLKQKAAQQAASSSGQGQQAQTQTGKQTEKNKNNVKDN
Sequence of PRKCQ (Q04759 whole entry): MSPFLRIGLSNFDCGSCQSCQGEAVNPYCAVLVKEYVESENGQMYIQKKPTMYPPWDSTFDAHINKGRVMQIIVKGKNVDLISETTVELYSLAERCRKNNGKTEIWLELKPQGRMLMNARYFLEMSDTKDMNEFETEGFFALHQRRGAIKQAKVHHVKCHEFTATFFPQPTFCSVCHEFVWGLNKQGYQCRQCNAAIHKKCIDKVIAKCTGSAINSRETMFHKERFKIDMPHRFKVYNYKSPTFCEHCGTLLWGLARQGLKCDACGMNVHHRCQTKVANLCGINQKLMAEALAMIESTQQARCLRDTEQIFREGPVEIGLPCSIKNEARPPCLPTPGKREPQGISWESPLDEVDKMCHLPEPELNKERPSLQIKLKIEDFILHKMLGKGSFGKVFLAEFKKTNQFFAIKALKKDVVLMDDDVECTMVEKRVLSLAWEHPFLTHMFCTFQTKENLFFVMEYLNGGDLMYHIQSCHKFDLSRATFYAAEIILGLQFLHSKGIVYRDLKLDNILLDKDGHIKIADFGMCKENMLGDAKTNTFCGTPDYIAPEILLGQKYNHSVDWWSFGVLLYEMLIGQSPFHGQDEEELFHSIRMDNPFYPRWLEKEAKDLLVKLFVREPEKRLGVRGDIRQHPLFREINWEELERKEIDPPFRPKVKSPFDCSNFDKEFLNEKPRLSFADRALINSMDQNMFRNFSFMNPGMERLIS
Sequence of CDK7 (P50613 whole entry): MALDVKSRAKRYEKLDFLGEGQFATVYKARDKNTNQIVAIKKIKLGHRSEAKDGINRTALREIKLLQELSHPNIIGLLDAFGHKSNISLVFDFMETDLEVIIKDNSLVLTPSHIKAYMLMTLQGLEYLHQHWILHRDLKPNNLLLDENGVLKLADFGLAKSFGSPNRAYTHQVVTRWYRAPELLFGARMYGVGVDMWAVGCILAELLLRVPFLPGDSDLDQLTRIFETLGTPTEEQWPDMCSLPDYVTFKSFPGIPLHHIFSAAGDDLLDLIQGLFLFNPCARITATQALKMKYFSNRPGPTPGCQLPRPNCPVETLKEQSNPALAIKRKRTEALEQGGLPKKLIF
Sequence of CSNK1D [CK1δ] (P48730 whole entry): as the sequence (P48730 whole entry) above

With Fc1cccc(-n2cnc3c(NCc4nc5c(F)c(F)ccc5[nH]4)nc(N4CCOCC4)nc32)c1 [SR-3029] the “% control activity, FLT3 (K663Q)” value (FLT3 (K663Q)) was 12%, the EC50 [1] was 86 nM and the “% control activity, FLT3” value (FLT3 [2]) was 3.7%. The “% control activity, FLT3 (ITD)” value (FLT3 (ITD)) was 19%, the “% control activity, MARK2” value (MARK2) was 7.3% and the “% control activity, CDK4/cyclin D1” value (CDK4/cyclin D1) was 4.4%. The IC50 (FLT3 [3]) was 3000 nM, the “% control activity, CSNK1A1L” value (CSNK1A1L) was 22% and the “% control activity, BMP2K” value (BMP2K) was 39%. For the same molecule, the “% control activity, CDK4/cyclin D3” value (CDK4/cyclin D3) was 19%, the “% control activity, MELK” value (MELK) was 22% and the AUC (Mouse PK studies) was 6.35 µM·h. It also gave a Cl (Mouse PK studies) of 5.5 mL/min/kg, a Cmax (Mouse PK studies) of 7.3 µM and a T1/2 (Mouse PK studies) of 54 min. The “% control activity, CSNK1A1” value (CSNK1A1) was 22%, the “% control activity, CDK7” value (CDK7) was 38% and the “% control activity, TAOK3” value (TAOK3) was 34%. For the same molecule, the “% control activity, PRKCQ” value (PRKCQ) was 88%, the “% control activity, LATS2” value (LATS2) was 26% and the “Number of off-target kinases inhibited ≥90%” value (442 kinases) was 6. For the same molecule, the “% control activity, RIOK3” value (RIOK3) was 100% and the “% control activity, CDK13” value (CDK13) was 100%.
For O=[N+]([O-])c1cccc2[nH]c(CNc3nc(N4CCOCC4)nc4c3ncn4-c3ccsc3)nc12 [SR-1277], the EC50 [1] was 22 nM, the “% control activity, CSNK1E [CK1ε]” value (CSNK1E [CK1ε]) was 0.5% and the “Microsome stability T1/2 (rat)” value [4] was 5 min. For the same molecule, the “% control activity, FLT3 (D835H)” value (FLT3 (D835H)) was 7.3%, the “% control activity, FLT3” value (FLT3 [2]) was 3.4% and the Ki (CK1δ [5]) was 69 nM. For the same molecule, the “% control activity, FLT3 (ITD)” value (FLT3 (ITD)) was 3.7%, the “% control activity, CSNK1D [CK1δ]” value (CSNK1D [CK1δ]) was 4.2% and the “% control activity, MARK2” value (MARK2) was 100%. The IC50 (CK1δ [6]) was 49 nM, the “% control activity, NLK” value (NLK) was 38% and the “% control activity, FLT3 (N841L)” value (FLT3 (N841L)) was 11%. The “% control activity, CDK4/cyclin D1” value (CDK4/cyclin D1) was 56%, the Solubility [7] was 1 µM (≈ 0.478 µg/mL) and the “Microsome stability T1/2 (mouse)” value [8] was 2 min. For the same molecule, the “% control activity, ROCK2” value (ROCK2) was 100%, the IC50 (FLT3 [3]) was 305 nM and the “% control activity, CSNK1A1L” value (CSNK1A1L) was 9.6%. For the same molecule, the “% control activity, BMP2K” value (BMP2K) was 6.2%, the “Microsome stability T1/2 (human)” value [9] was 7 min and the “% control activity, CDK4/cyclin D3” value (CDK4/cyclin D3) was 56%. The “% control activity, MAST1” value (MAST1) was 100%, the “% control activity, FLT3 (D835Y)” value (FLT3 (D835Y)) was 11% and the AUC (Mouse PK studies) was 1.26 µM·h. The Cl (Mouse PK studies) was 2.8 mL/min/kg, the Cmax (Mouse PK studies) was 1.2 µM and the T1/2 (Mouse PK studies) was 85.2 min. For the same molecule, the “% control activity, CSNK1A1” value (CSNK1A1) was 63%, the “% control activity, CDK7” value (CDK7) was 72% and the Solubility (Solubility in PBS buffer) was 1 µM (≈ 0.478 µg/mL). The “% control activity, PRKCQ” value (PRKCQ) was 100%, the “% control activity, LATS2” value (LATS2) was 100% and the “% control activity, RIOK3” value (RIOK3) was 9.6%. The “% control activity, CDK13” value (CDK13) was 1%.
